Reference: publication PMC6467816 (Journal of peptide science : an official publication of the …, 2019)
Peptide text beside a SMILES is read from it.

Experiments:
[1] = In vitro stability to proteolysis in human serum; type: in vitro ADME; conditions: 24 h treatment, 37 °C, RP-HPLC 280 nm
[2] = test system: trypsin; conditions: cited from earlier work
[3] = test system: HOS.CD4.CCR5 cells; assay: MTT; type: cell-based; conditions: concentrations 50 fold higher than IC50 values, 24 hours continuous cellular exposure
[4] = test system: chymotrypsin; conditions: cited from earlier work
[5] = test system: viruses pseudotyped with vesicular stomatitis virus glycoprotein, VSV-G; type: cell-based
[6] = rat, in vivo; cited from earlier work
[7] = Pharmacokinetic analysis after intravenous bolus in rats; type: in vivo, Sprague-Dawley rats

SMILES	Stability to human serum protease mixture [1]	Resistance to proteolysis by trypsin [2]	Toxicity in target HOS.CD4.CCR5 cells [3]	Resistance to proteolysis by chymotrypsin [4]	Inhibition of VSV-G pseudotyped virus [5]	Clearance rate [6]	Time over which plasma level was detectable ([7]; after tail vein administration to rats, fluorescence) [h]	AUC(0-inf) ([7]; rat, in vivo, iv, 0.01 mg/kg) [ng·h/mL]	Vd ([7]; rat, in vivo, iv, 0.01 mg/kg) [L]	clearance ([7]; rat, in vivo, iv, 0.01 mg/kg, CL (ml/h), clearance, intravenous bolus 0.01 mg/kg FITC (equiv), Sprague-Dawley rats) [mL/min]	half-life ([7]; rat, in vivo, iv, 0.01 mg/kg, t1/2α (h), distribution half life, intravenous bolus 0.01 mg/kg FITC (equiv), Sprague-Dawley rats) [h]	half-life ([7]; rat, in vivo, iv, 0.01 mg/kg, t1/2β (h), elimination half life, intravenous bolus 0.01 mg/kg FITC (equiv), Sprague-Dawley rats) [h]
CC[C@H](C)[C@@H]1NC(=O)[C@H](CC(N)=O)NC(=O)[C@@H](N)CC(=O)NCCCC[C@@H](C(N)=O)NC(=O)[C@H](Cc2c[nH]c3ccccc23)NC(=O)[C@@H]2C[C@H](n3cc(C4=CC=C[CH]4[Fe][CH]4C=CC=C4)nn3)CN2C1=O (stereo partly shown) [AAR029b] (HELM PEPTIDE1{D.N.I.[O=C([C@@H]1C[C@H](n2cc(C3=CC=C[CH]3[Fe][CH]3C=CC=C3)nn2)CN1[*:1])[*:2]].W.K.[am]}$PEPTIDE1,PEPTIDE1,1:R3-6:R3$$$V2.0; N-terminus and C-terminus assumed)	intact	resistant to proteolysis	No toxicity	resistant to proteolysis	did not inhibit	–	–	–	–	–	–	–
COc1ccnc2[nH]cc(C(=O)C(=O)N3CCN(C(=O)c4ccccc4)C[C@H]3C)c12 [BMS-378806]	–	–	–	–	–	~ 1800 mL/h	–	–	–	–	–	–
CC[C@H](C)[C@@H]1NC(=O)[C@H](CC(N)=O)NC(=O)[C@@H](NC(=S)Nc2ccc3c(c2)C(=O)OC32c3ccc(O)cc3Oc3cc(O)ccc32)CC(=O)NCCCC[C@@H](C(N)=O)NC(=O)[C@H](Cc2c[nH]c3ccccc23)NC(=O)[C@@H]2C[C@H](n3cc(C4=CC=C[CH]4[Fe][CH]4C=CC=C4)nn3)CN2C1=O (stereo partly shown) [FITC-AAR029b] (HELM PEPTIDE1{[O=C1OC2(c3ccc(O)cc3Oc3cc(O)ccc32)c2ccc(NC(=S)[*:2])cc21].D.N.I.[O=C([C@@H]1C[C@H](n2cc(C3=CC=C[CH]3[Fe][CH]3C=CC=C3)nn2)CN1[*:1])[*:2]].W.K.[am]}$PEPTIDE1,PEPTIDE1,2:R3-7:R3$$$V2.0; C-terminus assumed)	intact	–	–	–	–	–	≤ 7	40 ± 40	0.542 ± 0.119	2.27	0.029 ± 0.01	~3
